Source: patent publication US20080293699A1, “Inhibitors of thapsigargin-induced cell death” (priority 2007, published 2008)
Read-outs that look alike come from different tables or passages of the source.

How the values were obtained:
CSM14.1 cells = test: Primary HTS assay: ATP content (ATPlite) of undifferentiated CSM14.1 cells challenged with thapsigargin; format: cell-based, rat; conditions: thapsigargin-induced death of undifferentiated CSM14.1, ATP content
Source text: For convenience, and because transient reductions in temperature that might be associated with large screening experiments could restore Large T activity, we elected to develop our HTS using undifferentiated CSM14.1 cells, with the plan to then confirm hits using differentiated cells. For monitoring cell death, we used a commercially available bioluminescence reagent that determines intracellular ATP content, without requirement for complicated cell processing steps (ATPlite, Perkin Elmer). Thus, ATP was used as a surrogate indicator of cell survival for the primary assay.
Undifferentiated or differentiated CSM14.1 cells were plated at a density of 3,000 cells/well in 40 μL DMEM medium (containing 10% serum, 1 mM L-glutamine, and antibiotics) in 96 well flat-bottom microtiter plates composed of polystrene (Greiner Bio One, polystyrene, white wall, flat bottom, lumitrac, high binding). After overnight incubation at 32° C., DMSO (0.5% v/v) or 100 uM Salubrinal (Sal) in DMSO was delivered. After 2 hrs, 5 uL of a stock solution of 150 uM TG in DMEM medium containing 0.75% (v:v) DMSO to achieve a final concentration of approximately 15 uM. After culturing for 24 hrs, cellular ATP content was measured by addition of 20 uL per well of ATPlite solution (Perkin-Elmer), and then the plates were incubated for three minutes at room temperature, before reading with a Microplate Luminometer (BD Pharmingen Moonlight model 3096).
To determine the reproducibility of the ATP content assay, we prepared a 96-well plate in which half the wells received TG plus DMSO (assay minimum) and half received TG plus Salubrinal (assay maximum), then performed the ATP content studies using undifferentiated CSM14.1 cells (FIG. 6). CSM14.1 cells were cultured overnight at 3,000 cells per well in 96-well flat-bottom plates, then either DMSO (0.5% final concentration) or Salubrinal (100 μM) in DMSO (0.5% final concentration) was added to half the well (48 each). After two hrs, TG was added to all wells (15 μM final). Cells were cultured for 24 hrs, then the ATP content was measured using the ATPlite luminogenic assay. We then adapted this assay to the high-throughput environment, using a Biomex™ FX liquid handler for automated dispensing of assay components into microwells of 96-well plates. First, undifferentiated CSM14.1 cells were grown at 32° C. in DMEM medium supplemented with 10% fetal bovine serum (FBS), 1% penicillin/streptomycin, and 1% L-glutamine in 150 mm×25 mm polystyrene culture dishes to produce approximately 3×10^6 cells. Second, CSM14.1 cells were recovered from cultures by trypsinization when at 80-90% confluence, and suspended at 7.5×10^4 cells/mL in DMEM medium containing 2% FBS, 1 mM L-glutamine, and antibiotics 100 IU penicillin 100 μg/ml streptomycin. Third, the cell suspension was then delivered at 40 μL per well of 96-well plastic microtiter plates (Greiner Bio One, polystyrene, white wall, flat bottom, lumitrac, high binding, cat #655074), and the plates were cultured overnight at 32° C. in a humidified atmosphere in 95% air: 5% CO2. Fourth, using the automated liquid handler, 5 μL of test compounds in 10% DMSO were added to wells in columns 2-11 of the 96-well plates (leaving columns 1 and 12 intact) to achieve an approximate final concentration of 15 μg/mL test compound and a final concentration of 1% DMSO. Fifth, 5 μL of 1 mM Salubrinal in a solution of 10% DMSO:90% DMEM was added to wells of column 1/rows A-D of each plate, while 5 μL of 10% DMSO:90% DMEM solution was added to wells corresponding to column 1/rows E-H and to all wells in column 12. Sixth, the plates were returned to culture.

[1] = system: ASK1 (ser 967, ser 83, thr 845); test: Phosphorylation of ASK1 sites in ASK1-transfected 293T cells (immunoblotting); format: cell-based; conditions: ASK1-transfected 293T; for Phosphorylation of ASK1 at ser 967: 100 μM compound, two hours; for Phosphorylation of ASK1 at ser 83 and thr 845: up to 100 μM
Protocol: Phosphorylation of ASK1 at various sites was inspected. 293T cells were transfected with pcDNA-ASK1-HA. One day later, cells were incubated with DMSO (0.4%) or 100 μM compound 6239507 (#1) for two hours. Cell extracts were prepared using lysis buffer and were subjected to immunoblotting using anti-phospho ASK1 antibodies or anti HA antibody as indicated (A). The relative density of each phosphorylated ASK band was calculated by imageJ software (B). In (C), compounds from (A) were compared in activity against thapsigargin-induced cell death. […] (D) 293T cells were transfected with pcDNA-ASK1-HA and pEBG-GST-14-3-3. One day later cells were incubated with DMSO (0.4%) or 100 μM of the indicated compound for two hours. Then cells were treated with thapsigargin (20 μM) for the indicated time. Cell extracts were prepared using lysis buffer, and 14-3-3 proteins were immunoprecipitated with […] sepharose beads. ASK1 protein binding with 14-3-3 was visualized by immunoblotting using anti-HA antibody. Anti-phospho ASK1 (ser967) antibody was used to detect phosphorylation of ASK1 at each time point.
Thus, while not directly inhibiting ASK1 kinase activity, these events are predicted to reduce ASK1 in vivo kinase activity. It is possible that compound 5962123 inhibits a protein phosphatase that regulates phosphorylation of Ser967.
Suppression of thapsigargin-induced phosphorylation of p38MAPK was also measured by a quantitative ELISA-methods, with IC50 for p38MAPK phosphorylation estimated at <5 μM. In contrast, thapsigargin-induced expression of CHOP, expression of ATF4, proteolytic processing of ATF6, phosphorylation of eIF2a (Ser 51), auto-phosphorylation of Ire1a or auto-phosphorylation of ASK1 were not inhibited directly by CID-2878746 at concentrations up to 50 μM tested by in vitro kinase assay using p32-γ-ATP substrate. […] Thapsigargin-induced reductions in phosphorylation of ASK1 at the serine 967 site in ASK1 transfected 293T cells are inhibited by compound 5962123 at concentrations of 50-100 μM, as determined by immunoblotting using anti-phospho-specific (ser 967) antibody, but thapsigargin-induced changes in phosphorylation of ASK1 at ser 83 and thr 845 are not modulated by compound 5962123 at concentrations as high as 100 μM in ASK1-transfected HEK293T cells.
Experiments were also performed to determine whether compound 6239507 enhances phosphorylation of ASK1 at Ser 967 before and after ER stress induction (i.e., thapsigargin treatment). 293T cells were transfected with pcDNA-ASK1-HA. One day later, cells were incubated with DMSO (0.4%) or 100 μM compound 6239507 (#1) for two hours. Then cells were treated with thapsigargin (20 μM) for the indicated times. Cell extracts were prepared by lysis buffer and were subjected to immunoblotting with anti-phospho ASK1 Ser967 antibody or anti HA antibody. The relative density of phosphor ser967 bands were calculated by imageJ software (mean ±SD).
The ser 967 site of ASK1 is known to down-regulate ASK1 activity by phosphorylation (Goldman et al., J. Biol. Chem. 279:10442-10449, 2004) via 14-3-3 binding. […] 293T cells were transfected with pcDNA-ASK1-HA. One day later, cells were incubated with DMSO (0.4%) or 100 μM compound 6239507 (#1) for two hours. Cell extracts were prepared using lysis buffer and were subjected to immunoblotting using anti-phospho ASK1 antibodies or anti HA antibody as indicated. The relative density of each phosphorylated ASK band was calculated by imageJ software. The compounds were compared in activity against thapsigargin-induced cell death. 293T cells were transfected with pcDNA-ASK1-HA and pEBG-GST-14-3-3. One day later cells were incubated with DMSO (0.4%) or 100 μM of the indicated compound for two hours. Then cells were treated with thapsigargin (20 μM) for the indicated time. Cell extracts were prepared using lysis buffer, and 14-3-3 proteins were immunoprecipitated with […] sepharose beads. […]

[2] = one value given, read-out: IC50
[3] = Rattus norvegicus, one value given, read-out: IC50
[4] = first assay, read-out: IC50 (μM), first value
[5] = second assay (value in bold), read-out: IC50 (μM), value from a second assay

Row | Structure (SMILES) | IC50 (CSM14.1 cells; [2]) | IC50 (CSM14.1 cells; [3]) | other results
1 | CCOc1cc(C2Nc3ccccc3NC3=C2C(=O)CC(c2ccc(OC)cc2)C3)cc(Br)c1O (stereo not shown) [Compound 6048306] | 18.2 ± 1.93 µM |  | 
2 | COc1ccc(C2Nc3ccccc3NC3=C2C(=O)CC(c2ccc(Cl)cc2)C3)cc1 (stereo not shown) [Compound 6049070, 3-(4-chlorophenyl)-11-(4-methoxyphenyl)-2,3,4,5,10,11-hexahydro-1H-dibenzo[b,e][1,4]diazepin-1-one] |  | 12.5 ± 0.13 µM | 
3 | CCOc1cc(C2Nc3ccccc3NC3=C2C(=O)CC(c2ccc(OC)cc2)C3)cc(Cl)c1O (stereo not shown) [Compound 6049448] | 23.7 ± 0.642 µM |  | Phosphorylation of ASK1 at ser 967 [1]: enhanced phosphorylation of ser 967 only; Phosphorylation of ASK1 at ser 83 and thr 845 [1]: not ser 83 or thr 845; IC50 (CSM14.1 cells; [4]): 24.8 ± 2.03 µM; IC50 (CSM14.1 cells; [5]): 23.7 ± 0.642 µM
4 | COc1ccc(C2CC(=O)C3=C(C2)Nc2ccccc2NC3c2ccc(C(C)C)cc2)cc1 (stereo not shown) [Compound 6049861] | 10.3 ± 1.28 µM |  | 
5 | O=C1CC(c2ccccc2)CC2=C1C(c1ccccc1Cl)Nc1ccccc1N2 (stereo not shown) [Compound 6065973] | > 200 µM |  | 
6 | CCCCOc1ccccc1C1Nc2ccccc2NC2=C1C(=O)CC(c1ccccc1)C2 (stereo not shown) [Compound 6066511] | 19.2 ± 2.16 µM |  | 
7 | COc1ccc(C2CC(=O)C3=C(C2)Nc2ccccc2NC3c2ccc(NC(C)=O)cc2)cc1 (stereo not shown) [Compound 6067345] | > 100 µM |  | 
8 | COc1ccc(C2CC(=O)C3=C(C2)Nc2ccccc2NC3c2ccccc2Cl)cc1OC (stereo not shown) [Compound 6076307, 11-(2-chlorophenyl)-3-(3,4-dimethoxyphenyl)-2,3,4,5,10,11-hexahydro-1H-dibenzo[b,e][1,4]diazepin-1-one] |  | 41.7 ± 0.916 µM | 
9 | COc1ccc(C2CC(=O)C3=C(C2)Nc2ccccc2NC3c2ccc(F)c(F)c2)cc1 (stereo not shown) [Compound 6079090, 11-(3,4-difluorophenyl)-3-(4-methoxyphenyl)-2,3,4,5,10,11-hexahydro-1H-dibenzo[b,e][1,4]diazepin-1-one] |  | 21.7 ± 0.247 µM | 
10 | COc1ccc(C2CC(=O)C3=C(C2)Nc2ccccc2NC3c2c(Cl)cccc2Cl)cc1 (stereo not shown) [Compound 6079349] | 31.5 ± 2.84 µM |  | 
11 | COc1ccc(C2CC(=O)C3=C(C2)Nc2ccccc2NC3c2ccc(C)cc2)cc1OC (stereo not shown) [Compound 6105705, 3-(3,4-dimethoxyphenyl)-11-(4-methylphenyl)-2,3,4,5,10,11-hexahydro-1H-dibenzo[b,e][1,4]diazepin-1-one] |  | 25 ± 0.169 µM | 
12 | O=C1CC(c2ccccc2)CC2=C1C(c1c(F)cccc1Cl)Nc1ccccc1N2 (stereo not shown) [Compound 6237973] | 19.49 ± 0.169 µM |  | IC50 (CSM14.1 cells; [4]): 22.6 ± 0.68 µM; IC50 (CSM14.1 cells; [5]): 19.49 ± 0.169 µM
13 | COc1ccc(C2CC(=O)C3=C(C2)Nc2ccccc2NC3c2cccc(C(F)(F)F)c2)cc1OC (stereo not shown) [Compound 6238475] | 12.5 ± 0.17 µM |  | IC50 (CSM14.1 cells; [4]): 18.81 ± 0.157 µM; IC50 (CSM14.1 cells; [5]): 12.5 ± 0.17 µM
14 | COc1ccc(C2CC(=O)C3=C(C2)Nc2ccccc2NC3c2cc(C)ccc2C)cc1 (stereo not shown) [Compound 6238767] | 12.5 ± 0.177 µM |  | Phosphorylation of ASK1 at ser 967 [1]: enhanced phosphorylation of ser 967 only; Phosphorylation of ASK1 at ser 83 and thr 845 [1]: not ser 83 or thr 845; IC50 (CSM14.1 cells; [4]): 13.3 ± 1.17 µM; IC50 (CSM14.1 cells; [5]): 12.5 ± 0.177 µM
15 | COc1ccc(C2CC(=O)C3=C(C2)Nc2ccccc2NC3c2cccc(Br)c2)cc1OC (stereo not shown) [Compound 6239538] | 12.5 ± 0.177 µM |  | IC50 (CSM14.1 cells; [4]): 15.5 ± 0.243 µM; IC50 (CSM14.1 cells; [5]): 12.5 ± 0.177 µM
16 | COc1ccc(C2CC(=O)C3=C(C2)Nc2ccccc2NC3c2ccc(-c3ccccc3)cc2)cc1OC (stereo not shown) [Compound 6239945, 11-(4-biphenylyl)-3-(3,4-dimethoxyphenyl)-2,3,4,5,10,11-hexahydro-1H-dibenzo[b,e][1,4]diazepin-1-one] |  | 21.8 ± 2.97 µM | 
17 | COc1ccc(C2CC(=O)C3=C(C2)Nc2ccccc2NC3c2ccccc2[N+](=O)[O-])cc1OC (stereo not shown) [Compound 6240043] | 39.6 ± 1.99 µM |  | 
18 | COc1ccc(C2CC(=O)C3=C(C2)Nc2ccccc2NC3c2c(F)cccc2F)cc1 (stereo not shown) [Compound 6241186] | 25 ± 0.175 µM |  | 
19 | O=C1CC(c2ccccc2)CC2=C1C(c1cccc3ccccc13)Nc1ccccc1N2 (stereo not shown) [Compound 6366991] | 22.2 ± 2.8 µM |  | 
20 | COc1ccc(C2CC(=O)C3=C(C2)Nc2ccccc2NC3c2ccccc2C)cc1OC (stereo not shown) [Compound 6369841, 3-(3,4-dimethoxyphenyl)-11-(2-methylphenyl)-2,3,4,5,10,11-hexahydro-1H-dibenzo[b,e][1,4]diazepin-1-one] |  | 36.5 ± 2.19 µM | 
